The values that follow come from patent US11020395B2, “Cycloalkyl substituted triazole compounds as agonists of the APJ receptor” (AMGEN INC., priority 2016, dated 2021).

The term EC50 denotes the midpoint of the concentration-response curve.

Chain of human APJ-AT1R double stable CHO cell line (P35414 whole entry): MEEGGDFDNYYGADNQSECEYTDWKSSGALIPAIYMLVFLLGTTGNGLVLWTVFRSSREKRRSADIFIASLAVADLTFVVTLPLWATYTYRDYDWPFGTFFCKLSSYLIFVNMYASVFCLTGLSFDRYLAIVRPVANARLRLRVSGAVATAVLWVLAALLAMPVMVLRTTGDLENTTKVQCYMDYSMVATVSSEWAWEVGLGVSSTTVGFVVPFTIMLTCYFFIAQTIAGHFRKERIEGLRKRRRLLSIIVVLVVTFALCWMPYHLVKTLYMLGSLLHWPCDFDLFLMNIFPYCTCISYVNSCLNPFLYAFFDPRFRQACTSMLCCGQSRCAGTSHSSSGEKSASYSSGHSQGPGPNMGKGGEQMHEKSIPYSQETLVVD

The target in one assay is human APJ-AT1R double stable CHO cell line (Homo sapiens (Human), UniProt P35414). Briefly: IP1 accumulation (TR-FRET) assay with AngII in human APJ-AT1R double stable CHO cell line. The following applies: in the presence of AngII and APJ small molecule agonists. It counts as cell-based. As to the method:
The function of the inositol phosphate accumulation (IP1) was measured by Time-resolved fluorescence resonance energy (TR-FRET) at 620 nm and 665 nm respectively.
The plate was sealed and incubated for 1 hour.
With `CCCCc1nc(Cl)c(CO)n1Cc1ccc(-c2ccccc2-c2nn[nH]n2)cc1` [losartan], the “effect on APJ agonist-induced positive cooperativity” value is listed as “relieved this cooperativity”.

In another assay the test system is heart failure rats. Briefly: Cardiac function with APJ small molecule agonists in the presence of ACE inhibitor captopril in heart failure rats in vivo. Details: species or system rat. The following applies: captopril alone, acute settings. From the text:
The interaction between […] (ACE2) and Apelin biology is complicated. To investigate the interaction between the Apelin-APJ and ACE signalling pathways, we examined the improvement in cardiac function with APJ small molecule agonists in the presence of ACE inhibitor captopril in heart failure rats in vivo. […] However, in the presence of an APJ agonist, there was a shift in potency to the left with marked improvement in contractility and ejection fraction without changes in heart rate. These findings provide a new reference for the understanding of the regulation of ACE2 for the renin angiotensin aldosterone system (RAAS), independent of AT1R signaling and offer new potential drug targets for the treatment of diseases such as hypertension and heart failure. This work clearly establishes that combination of an agonist of the APJ receptor with an ARB such as losartan and/or with an ACE inhibitor such as captopril which may play an important role in providing greater efficacy in treating heart failure patients, for example in improving contractility and ejection fraction without changing the heart rate.
`C[C@H](CS)C(=O)N1CCC[C@H]1C(=O)O` [Captopril, captopril]: the “contractility or ejection fraction” value is “does not show a marked improvement”.

The target of a further assay is human APJ receptor (Homo sapiens (Human), UniProt P35414). The assay is described as follows: [35S]GTPγS binding assay on membranes from CHO cells stably expressing human APJ receptor. It counts as biochemical. The following applies: [35S]GTPγS SPA, read-out: Activity hAPJ SPA EC50 IP. A digest of the protocol: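 Membranes from CHO cells stably expressing FLAG-tagged human APJ were incubated with [35S]GTPγS in buffer with optimized GDP, MgCl2 and NaCl, 90 min at RT. EC50 values derived by non-linear regression, averaged over several independent experiments.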
Chain of human APJ receptor (P35414 whole entry): as above
In general terms: GTPγS resists hydrolysis and so accumulates on activated G proteins.
Take “(1R,2S)-1-(5-chloropyrimidin-2-yl)-N-(4-(2,6-dimethoxyphenyl)-5-((S)-spiro[2.2]pentan-1-yl)-4H-1,2,4-triazol-3-yl)-1-methoxypropane-2-sulfonamide or (1R,2S)-1-(5-chloropyrimidin-2-yl)-N-(4-(2,6-dimethoxyphenyl)-5-((R)-spiro[2.2]pentan-1-yl)-4H-1,2,4-triazol-3-yl)-1-methoxypropane-2-sulfonamide [Example 222.0]”: the half-maximal effective concentration (EC50) came to 24 nM.
Regarding “(1R,2S)-1-(5-chloropyrimidin-2-yl)-N-(4-(2,6-dimethoxyphenyl)-5-((S)-spiro[2.2]pentan-1-yl)-4H-1,2,4-triazol-3-yl)-1-methoxypropane-2-sulfonamide or (1R,2S)-1-(5-chloropyrimidin-2-yl)-N-(4-(2,6-dimethoxyphenyl)-5-((R)-spiro[2.2]pentan-1-yl)-4H-1,2,4-triazol-3-yl)-1-methoxypropane-2-sulfonamide [Example 223.0]”, the 50% effective concentration (EC50) stood at 1.2 nM.
The same measure, in the same setting: under “(1R,2S)-1-(5-chloropyrimidin-2-yl)-N-(4-(4,6-dimethoxypyrimidin-5-yl)-5-((R)-6-oxaspiro[2.5]octan-1-yl)-4H-1,2,4-triazol-3-yl)-1-methoxypropane-2-sulfonamide or (1R,2S)-1-(5-chloropyrimidin-2-yl)-N-(4-(4,6-dimethoxypyrimidin-5-yl)-5-((S)-6-oxaspiro[2.5]octan-1-yl)-4H-1,2,4-triazol-3-yl)-1-methoxypropane-2-sulfonamide [Example 102.0]” stands 160 nM; under “(1R,2S)-1-(5-chloropyrimidin-2-yl)-N-(4-(4,6-dimethoxypyrimidin-5-yl)-5-((R)-6-oxaspiro[2.5]octan-1-yl)-4H-1,2,4-triazol-3-yl)-1-methoxypropane-2-sulfonamide or (1R,2S)-1-(5-chloropyrimidin-2-yl)-N-(4-(4,6-dimethoxypyrimidin-5-yl)-5-((S)-6-oxaspiro[2.5]octan-1-yl)-4H-1,2,4-triazol-3-yl)-1-methoxypropane-2-sulfonamide [Example 103.0]”, 39 nM; under “(1R,2S)-1-(5-chloropyrimidin-2-yl)-N-(4-(4,6-dimethoxypyrimidin-5-yl)-5-((R)-spiro[2.2]pentan-1-yl)-4H-1,2,4-triazol-3-yl)-1-methoxypropane-2-sulfonamide or (1R,2S)-1-(5-chloropyrimidin-2-yl)-N-(4-(4,6-dimethoxypyrimidin-5-yl)-5-((S)-spiro[2.2]pentan-1-yl)-4H-1,2,4-triazol-3-yl)-1-methoxypropane-2-sulfonamide [Example 106.0]”, 19 nM.
Still for that read-out and setting: for “(1R,2S)-1-(5-chloropyrimidin-2-yl)-N-(4-(4,6-dimethoxypyrimidin-5-yl)-5-((R)-spiro[2.2]pentan-1-yl)-4H-1,2,4-triazol-3-yl)-1-methoxypropane-2-sulfonamideor (1R,2S)-1-(5-chloropyrimidin-2-yl)-N-(4-(4,6-dimethoxypyrimidin-5-yl)-5-((S)-spiro[2.2]pentan-1-yl)-4H-1,2,4-triazol-3-yl)-1-methoxypropane-2-sulfonamide [Example 105.0]” the value was 0.92 nM; for “(1R,2S)-1-(5-chloropyrimidin-2-yl)-N-(5-((R)-2,2-dimethylcyclopropyl)-4-(tetrahydro-2H-pyran-4-yl)-4H-1,2,4-triazol-3-yl)-1-methoxypropane-2-sulfonamide or (1R,2S)-1-(5-chloropyrimidin-2-yl)-N-(5-((S)-2,2-dimethylcyclopropyl)-4-(tetrahydro-2H-pyran-4-yl)-4H-1,2,4-triazol-3-yl)-1-methoxypropane-2-sulfonamide [Example 20.0]”, 840 nM; for “(1R,2S)-1-(5-chloropyrimidin-2-yl)-N-(5-((R)-2,2-dimethylcyclopropyl)-4-(tetrahydro-2H-pyran-4-yl)-4H-1,2,4-triazol-3-yl)-1-methoxypropane-2-sulfonamide or (1R,2S)-1-(5-chloropyrimidin-2-yl)-N-(5-((S)-2,2-dimethylcyclopropyl)-4-(tetrahydro-2H-pyran-4-yl)-4H-1,2,4-triazol-3-yl)-1-methoxypropane-2-sulfonamide [Example 21.0]”, 480 nM.
Same read-out and setting: under “(1S,2S)-N-(4-(2,6-dimethoxyphenyl)-5-(trans-3-methoxycyclobutyl)-4H-1,2,4-triazol-3-yl)-1-(5-methyl-2-pyrimidinyl)-1-(2-propanyloxy)-2-propanesulfonamide or (1S,2S)-N-(4-(2,6-dimethoxyphenyl)-5-(cis-3-methoxycyclobutyl)-4H-1,2,4-triazol-3-yl)-1-(5-methyl-2-pyrimidinyl)-1-(2-propanyloxy)-2-propanesulfonamide [Example 226.0]” stands 21 nM; under “(2S,3R)-3-(5-chloropyrimidin-2-yl)-N-(4-(2,6-dimethoxyphenyl)-5-((S)-spiro[2.2]pentan-1-yl)-4H-1,2,4-triazol-3-yl)butane-2-sulfonamide or (2S,3R)-3-(5-chloropyrimidin-2-yl)-N-(4-(2,6-dimethoxyphenyl)-5-((R)-spiro[2.2]pentan-1-yl)-4H-1,2,4-triazol-3-yl)butane-2-sulfonamide [Example 218.0]”, 1.1 nM.
In the case of “(2S,3R)-3-(5-chloropyrimidin-2-yl)-N-(4-(2,6-dimethoxyphenyl)-5-((S)-spiro[2.2]pentan-1-yl)-4H-1,2,4-triazol-3-yl)butane-2-sulfonamide or (2S,3R)-3-(5-chloropyrimidin-2-yl)-N-(4-(2,6-dimethoxyphenyl)-5-((R)-spiro[2.2]pentan-1-yl)-4H-1,2,4-triazol-3-yl)butane-2-sulfonamide [Example 219.0]”, the EC50 was found to be 29 nM.
The same measure, in the same setting: under “(2S,3R)-3-(5-chloropyrimidin-2-yl)-N-(5-((R)-2,2-difluorocyclopropyl)-4-(2,6-dimethoxyphenyl)-4H-1,2,4-triazol-3-yl)butane-2-sulfonamide or (2S,3R)-3-(5-chloropyrimidin-2-yl)-N-(5-((S)-2,2-difluorocyclopropyl)-4-(2,6-dimethoxyphenyl)-4H-1,2,4-triazol-3-yl)butane-2-sulfonamide [Example 220.0]” stands 39 nM; under “(2S,3R)-3-(5-chloropyrimidin-2-yl)-N-(5-((R)-2,2-difluorocyclopropyl)-4-(2,6-dimethoxyphenyl)-4H-1,2,4-triazol-3-yl)butane-2-sulfonamide or (2S,3R)-3-(5-chloropyrimidin-2-yl)-N-(5-((S)-2,2-difluorocyclopropyl)-4-(2,6-dimethoxyphenyl)-4H-1,2,4-triazol-3-yl)butane-2-sulfonamide [Example 221.0]”, 18 nM.
